Laboratory results reported in patent US12410174B1, “Small molecular inhibitors of sting signaling compositions and methods of use” (TYERELL IMMUNOTHERAPEUTICS INC, priority 2020, dated 2025).
Entries after “also recorded” stand apart in the source; their conditions may differ.

Key:
STING signaling [1] = assay: Luciferase live cell assay, type I IFN promoter in hTERT-pIFNβ-Glu cells after ISD transfection; assay type: cell-based, human; conditions: for criteria to inhibit STING dependent signaling (type I IFN promoter in human cells): test of the 25 novel analogs; for inhibitory activity of the type I IFN promoter (luciferase induction): hTERT-pIFNβ-Glu cells, 50 μM or 25 μM, in response to ISD
Method: Inhibition of IFNβ expression was measured by Luciferase induction at 24 hours after transfection of ISD, Mock is shown (210), ISD treatment only (220) was used as a control, according to an embodiment of the invention;
Example 1: Identification of small molecule antagonists of STING. In the presence of cytosolic DNA species, STING becomes activated to drive the transcription of cytokines such as type I IFN. Compounds binding to STING via TSA were subsequently examined for their ability to prevent cytosolic DNA species from activating the type I interferon (IFN) promoter, using a live cell assay. This assay comprised immortalized human fibroblasts that were stably transfected with the type I IFN promoter driving luciferase as well as the CMV promoter driving SEAP (hTERT-pIFNβ-Glu). The live cell assay has previously been disclosed in PCT/JS2019/025380 entitled IFN-βETA REPORTER SYSTEM FOR IMMORTALIZED PRIMARY CELLS inventor Glen N. Barber, which was filed Apr. 2, 2018 and published as WO2019195285, and which is herein incorporated by reference in its entirety and for all purposes. The ability of the small molecules to prevent activation of the type I IFN promoter and the transcription of luciferase, but not SEAP in response to cytosolic DNA species was assessed. The activation of STING, typically by CDNs, in turn activates the transcription factors NF-κB and IRF3, both of which are required to induce the transcriptional stimulation of the Type I IFN promoter, but not the CMV promoter as IRF3 and NF-kB transcription factor binding sites are not contained in the CMV promoter. The assay identified the small molecule Compound Y1 in the first screen (HTS), where the level of luciferase was not able to activate the type I IFN promoter or induce the expression of luciferase (see Table I).
Example 4: hTERT-BJ1 Telomerase Fibroblasts (hTERT) were originally purchased from Clontech and were cultured in 4:1 ratio of DMEM:Medium 199 supplement with 10% FBS, 4 mM L-Glutamine and 1 mM sodium pyruvate at 37° C. in a 5% CO2-humidified atmosphere. hTERT-BJ1 Telomerase Fibroblasts stably expressing the luciferase gene under the control of the interferon-beta promoter and SEAP gene under control of the CMV promoter) (hTERT-pIFNβ-Glu) were generated by the Barber laboratory.
Example 7: Luciferase assay: hTERT-BJ1 Telomerase Fibroblasts stably expressing the luciferase gene under the control of the interferon-beta promoter and SEAP gene under control of the CMV promoter) (hTERT-pIFNβ-Glu) were generated by the Barber laboratory. Luciferase assay was performed using Secrete-Pair Dual Luminescence Assay Kit from GeneCopoeia following the manufacturer's protocol.

STING signaling [2] = assay: qPCR of IFNβ1 / Cxcl10 in normal hTERT cells after ISD transfection; assay type: cell-based, human; conditions: normal hTERT cells stimulated with ISD; 50 μM, 25 μM or 5 μM
Method: (§1) Example 11: qPCR total RNA were reverse-transcribed using M-MLV Reverse Transcriptase (Promega). Real-time PCR was performed using Taqman Gene Expression Assay (Applied Biosystems) for innate immune genes and inflammatory cytokines.

STING signaling [3] = assay: Confocal analysis of STING trafficking and IRF3 translocation in hTERT cells; assay type: cell-based, human; conditions: 6 hours after ISD transfection
Method: FIG. 2E are photographs showing confocal analysis of STING trafficking using anti-Sting performed at 6 hours after ISD transfection with Y1+220/without 220, Mock is shown (210), ISD treatment only (220) was used as control, treatment same as in FIG. 2A, according to an embodiment of the invention;
Example 10: Immunofluorescence Microscopy: Cells were cultured and treated in their appropriate media on Lab-Tek II chamber slides. Cell were fixed with 4% paraformaldehyde for 15 minutes in at 37° C. and permeabilized with 0.05% Triton X-100 for 5 minutes at room temperature. Immunostaining was performed with rabbit-anti-STING polyclonal, rabbit-anti-IRF3 (Santa Cruz Biotechnology) or rabbit-anti-p65 (Cell Signaling) followed by fluorescence conjugated secondary antibodies (FITC-goat-anti-rabbit) (Invitrogen).

STING signaling [4] = assay: qPCR of Cxcl10 / Cxcl5 in MEF cells after ISD transfection; assay type: cell-based, murine
Method: MEFs were obtained from E13.5 embryos by a standard procedure. Bone Marrow Derived Macro-phages (BMDM) were isolated from hind-limb femurs of 8-10 weeks old WT and Trex1 KO (TKO) mice. The hematopoietic cells from the bone marrow were cultured in complete DMEM (Invitrogen) including 10 ng/ml of Mouse Recombinant Colony-Stimulating Factor (M-CSF, R&D Systems) for 10 to 14 days.
as §1

STING signaling [5] = assay: Western blot of STING, TBK1 and IRF3 phosphorylation in MEF cells; assay type: cell-based, murine; conditions: cytosolic DNA
Method: Example 8: Immunoblot analysis: Equal amounts of proteins were resolved on sodium dodecyl sulfate (SDS)-Polyacrylamide gels and then transferred to polyvinylidene fluoride (PVDF) membranes (Millipore). After blocking with 5% Blocking Reagent, membranes were incubated with various primary antibodies (and appropriate secondary antibodies). The image was resolved using an enhanced chemiluminescence system ECL (Thermo Scientific) and detected by autoradiography (Kodak). Antibodies: rabbit polyclonal antibody against STING was developed in our laboratory as described previously in Ishikawa et al, 2008; other antibodies were obtained from following sources: β-actin (Sigma Aldrich), p-IRF3 (Cell Signaling), IRF3 (Santa Cruz Biotechnology), p-p65 (Cell Signaling), p65 (Cell Signaling), p-TBK1 (Cell Signaling), TBK1 (Abcam), cGAS (Cell Signaling).

TREX1-deficient mice = assay: Treatment of TREX1 knockout (TKO) mice: survival and heart histopathology; assay type: in vivo, mouse
Method: Example 12: Mouse Treatment: Trex1 Hetero knockout mice (Trex1^+/−) were generated by crossing the hetero mice. Mouse genotypes from tail biopsies were determined using Real Time PCR with specific probes designed for each gene by commercial vendor (Transnetyx). Trex1 KO (TKO) mice (4-5 weeks old) were intraperitoneally injected with 25 μg Z811 per mouse in 200 μL 1% DMSO in PBS. The mice were injected three times a week for 5 months. The survival rates were evaluated.
Example 13: Histopathology. Mice are sacrificed and the heart tissues were fixed in 10% formalin for 48 hours.

Structure (SMILES) | criteria to inhibit STING dependent signaling (type I IFN promoter in human cells) (STING signaling [1]) | inhibitory activity of the type I IFN promoter (luciferase induction) (STING signaling [1]) | production of STING-inducible cytokine Cxcl10 (qPCR) (STING signaling [2]) | IRF3 translocation (confocal analysis) (STING signaling [3]) | STING trafficking (confocal analysis) (STING signaling [3]) | Cxcl10 production in response to ISD (qPCR) (STING signaling [4]) | phosphorylation of TBK1, IRF3 and STING (Western blot) (STING signaling [5]) | inflammation in the heart (H&E staining) (TREX1-deficient mice) | survival of TREX1-deficient mice (TREX1-deficient mice; intraperitoneal, 25 μg/mouse, 5 months, compared to mock treated)
N#Cc1c(NC(=O)c2ccccc2Cl)n(CCOc2ccccc2)c2nc3ccccc3nc12 [Compound Y2, 2-chloro-N-[3-cyano-1-(2-phenoxyethyl)-1H-pyrrolo [2,3-b]quinoxalin-2-yl] benzamide] | found to meet the criteria to inhibit STING dependent signaling; also recorded: found to meet the criteria to inhibit STING dependent signaling and showed the most effective inhibitory activity |  |  |  |  |  |  |  | 
COCCn1c(NC(=O)c2ccccc2Cl)c(C#N)c2nc3ccccc3nc21 [Compound Y3, 2-chloro-N-[3-cyano-1-(2-methoxyethyl)-1H-pyrrolo [2,3-ß]iquinoxalin-2-yl] benzamide] | found to meet the criteria to inhibit STING dependent signaling; also recorded: found to meet the criteria to inhibit STING dependent signaling and showed the most effective inhibitory activity |  |  |  |  |  |  |  | 
Cc1ccc(Cl)c(C(=O)Nc2c(C#N)c3nc4ccccc4nc3n2CCc2ccccc2)c1 [Compound Y4, 2-chloro-N-[3-cyano-1-(2-phenylethyl)-1H-pyrrolo [2,3-b]quinoxalin-2-yl]-5-methylbenzamide] | found to meet the criteria to inhibit STING dependent signaling; also recorded: found to meet the criteria to inhibit STING dependent signaling and showed the most effective inhibitory activity | showed robust inhibitory activity of the type I IFN promoter | robustly inhibited | reproducibly prevented STING trafficking and IRF3 phosphorylation | reproducibly prevented STING trafficking and IRF3 phosphorylation | impede the production of Cxcl10 | can prevent the phosphorylation of TBK1 and IRF3 as well as STING phosphorylation |  | 
N#Cc1c(NC(=O)c2cccc(F)c2Cl)n(CCc2ccccc2)c2nc3ccccc3nc12 [Compound Y5, 2-chloro-N-[3-cyano-1-(2-phenylethyl)-1H-pyrrolo [2,3-b]quinoxalin-2-yl]-3-floorobenzamide] | found to meet the criteria to inhibit STING dependent signaling; also recorded: found to meet the criteria to inhibit STING dependent signaling and showed the most effective inhibitory activity | showed robust inhibitory activity of the type I IFN promoter | robustly inhibited |  |  |  |  |  | 
N#Cc1c(NC(=O)c2c(F)cccc2Cl)n(CCc2ccccc2)c2nc3ccccc3nc12 [Compound Y6, 2-chloro-N-[3-cyano-1-(2-phenylethyl)-1H-pyrrolo [2,3-b]quinoxalin-2-yl]-6-fluorobenzamide] | found to meet the criteria to inhibit STING dependent signaling; also recorded: found to meet the criteria to inhibit STING dependent signaling and showed the most effective inhibitory activity | showed robust inhibitory activity of the type I IFN promoter | robustly inhibited |  |  |  |  |  | 
N#Cc1c(NC(=O)c2ccccc2Cl)n(CCc2cccc(F)c2)c2nc3ccccc3nc12 [Compound Y7, 2-chloro-N-{3-cyano-1-[2-(3-fluorophenyl)ethyl]-1H-pyrrolo[2,3-b]quinoxalin-2-yl}benzamide] | found to meet the criteria to inhibit STING dependent signaling; also recorded: found to meet the criteria to inhibit STING dependent signaling and showed the most effective inhibitory activity | showed robust inhibitory activity of the type I IFN promoter | robustly inhibited |  |  |  |  |  | 
N#Cc1c(NC(=O)c2cccc(Cl)c2Cl)n(CCc2ccccc2)c2nc3ccccc3nc12 [Compound Y8, 2,3-dichloro-N-[3-cyano-1-(2-phenylethyl)-1H-pyrrolo[2,3-b]quinoxalin-2-yl]benzamide] | found to meet the criteria to inhibit STING dependent signaling; also recorded: found to meet the criteria to inhibit STING dependent signaling and showed the most effective inhibitory activity | showed robust inhibitory activity of the type I IFN promoter | robustly inhibited | reproducibly prevented STING trafficking and IRF3 phosphorylation | reproducibly prevented STING trafficking and IRF3 phosphorylation | impede the production of Cxcl10 | can prevent the phosphorylation of TBK1 and IRF3 as well as STING phosphorylation |  | 
Cc1cccc(C(=O)Nc2c(C#N)c3nc4ccccc4nc3n2CCc2ccccc2)c1Cl [Compound Y9, 2-chloro-N-[3-cyano-1-(2-phenylethyl)-1H-pyrrolo [2,3-β]quinoxalin-2-yl]-3-methylbenzamide] | found to meet the criteria to inhibit STING dependent signaling; also recorded: found to meet the criteria to inhibit STING dependent signaling and showed the most effective inhibitory activity | showed robust inhibitory activity of the type I IFN promoter | robustly inhibited | reproducibly prevented STING trafficking and IRF3 phosphorylation | reproducibly prevented STING trafficking and IRF3 phosphorylation | impede the production of Cxcl10 | can prevent the phosphorylation of TBK1 and IRF3 as well as STING phosphorylation | Less inflammation in the heart | extend the survival of TREX1-deficient mice
